Activity calls are given as the source filed them. The rule behind the calls is not given here.
How the values were obtained:
[1] = tested on: NCI-H23; test: Growth inhibition of human NCI-H23 cells after 48 hrs by SRB assay; type: functional; details: NCI-H23, 48 h
[2] = tested on: HCT-15; test: Growth inhibition of human HCT15 cells after 48 hrs by SRB assay; type: functional
[3] = molecular target: Rho-related GTP-binding protein RhoB (Homo sapiens) (UniProt P62745); test: Transactivation of RhoB (unknown origin) transfected in human HeLa cells at 5 uM measured over 10 secs by dual luciferase reporter gene assay; type: cell-based
Sequence of Rho-related GTP-binding protein RhoB (Homo sapiens) (P62745 whole entry): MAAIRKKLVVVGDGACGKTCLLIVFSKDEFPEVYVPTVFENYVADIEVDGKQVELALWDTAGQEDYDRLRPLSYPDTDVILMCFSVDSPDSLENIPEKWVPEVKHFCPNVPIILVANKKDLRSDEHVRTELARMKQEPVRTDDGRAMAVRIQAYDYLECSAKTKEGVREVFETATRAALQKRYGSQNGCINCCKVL

[4] = tested on: NUGC-3; test: Growth inhibition of human NUGC3 cells after 48 hrs by SRB assay; type: functional; details: NUGC-3, 48 h
[5] = tested on: ACHN; test: Growth inhibition of human ACHN cells after 48 hrs by SRB assay; type: functional
[6] = tested on: MDA-MB-231; test: Growth inhibition of human MDA-MB-231 cells after 48 hrs by SRB assay; type: functional; details: MDA-MB-231, 48 h
[7] = tested on: PC-3; test: Growth inhibition of human PC3 cells after 48 hrs by SRB assay; type: functional; details: PC-3, 48 h
[8] = tested on: PC-3; test: Growth of human PC3 cells at 10 uM after 48 hrs by SRB assay; details: PC-3, 48 h
[9] = tested on: NUGC-3; test: Growth of human NUGC3 cells at 1 uM after 48 hrs by SRB assay; details: NUGC-3, 48 h
[10] = tested on: ACHN; test: Growth of human ACHN cells at 10 uM after 48 hrs by SRB assay
[11] = tested on: HCT-15; test: Growth of human HCT15 cells at 3 uM after 48 hrs by SRB assay; details: HCT-15, 48 h
[12] = tested on: ACHN; test: Growth of human ACHN cells at 0.1 uM after 48 hrs by SRB assay
[13] = tested on: ACHN; test: Growth of human ACHN cells at 0.3 uM after 48 hrs by SRB assay
[14] = tested on: NUGC-3; test: Growth of human NUGC3 cells at 0.1 uM after 48 hrs by SRB assay; details: NUGC-3, 48 h
[15] = tested on: NUGC-3; test: Growth of human NUGC3 cells at 0.3 uM after 48 hrs by SRB assay; details: NUGC-3, 48 h
[16] = tested on: HCT-15; test: Growth of human HCT15 cells at 0.3 uM after 48 hrs by SRB assay; details: HCT-15, 48 h
[17] = tested on: NCI-H23; test: Growth of human NCI-H23 cells at 10 uM after 48 hrs by SRB assay; details: NCI-H23, 48 h
[18] = tested on: NCI-H23; test: Growth of human NCI-H23 cells at 0.3 uM after 48 hrs by SRB assay; details: NCI-H23, 48 h
[19] = tested on: MDA-MB-231; test: Growth of human MDA-MB-231 cells at 1 uM after 48 hrs by SRB assay; details: MDA-MB-231, 48 h
[20] = tested on: MDA-MB-231; test: Growth of human MDA-MB-231 cells at 10 uM after 48 hrs by SRB assay; details: MDA-MB-231, 48 h
[21] = tested on: MDA-MB-231; test: Growth of human MDA-MB-231 cells at 0.1 uM after 48 hrs by SRB assay; details: MDA-MB-231, 48 h
[22] = tested on: MDA-MB-231; test: Growth of human MDA-MB-231 cells at 3 uM after 48 hrs by SRB assay; values are per cent of control; details: MDA-MB-231, 48 h
[23] = tested on: PC-3; test: Growth inhibition of human PC3 cells at 1 uM after 48 hrs by SRB assay; values are per cent of control; details: PC-3, 48 h
[24] = tested on: PC-3; test: Growth inhibition of human PC3 cells at 3 uM after 48 hrs by SRB assay; values are per cent of control; details: PC-3, 48 h
[25] = tested on: ACHN; test: Growth inhibition of human ACHN cells at 3 uM after 48 hrs by SRB assay; values are per cent of control
[26] = tested on: ACHN; test: Growth inhibition of human ACHN cells at 1 uM after 48 hrs by SRB assay; values are per cent of control
[27] = tested on: NUGC-3; test: Growth inhibition of human NUGC3 cells at 3 uM after 48 hrs by SRB assay; values are per cent of control; details: NUGC-3, 48 h
[28] = tested on: PC-3; test: Growth inhibition of human PC3 cells at 0.1 uM after 48 hrs by SRB assay; values are per cent of control; details: PC-3, 48 h
[29] = tested on: PC-3; test: Growth inhibition of human PC3 cells at 0.3 uM after 48 hrs by SRB assay; values are per cent of control; details: PC-3, 48 h
[30] = tested on: HCT-15; test: Growth inhibition of human HCT15 cells at 1 uM after 48 hrs by SRB assay; values are per cent of control; details: HCT-15, 48 h
[31] = tested on: NUGC-3; test: Growth inhibition of human NUGC3 cells at 10 uM after 48 hrs by SRB assay; values are per cent of control; details: NUGC-3, 48 h
[32] = tested on: HCT-15; test: Growth inhibition of human HCT15 cells at 10 uM after 48 hrs by SRB assay; values are per cent of control; details: HCT-15, 48 h
[33] = tested on: NCI-H23; test: Growth inhibition of human NCI-H23 cells at 1 uM after 48 hrs by SRB assay; values are per cent of control; details: NCI-H23, 48 h
[34] = tested on: NCI-H23; test: Growth inhibition of human NCI-H23 cells at 3 uM after 48 hrs by SRB assay; values are per cent of control; details: NCI-H23, 48 h
[35] = tested on: HCT-15; test: Growth inhibition of human HCT15 cells at 0.1 uM after 48 hrs by SRB assay; values are per cent of control; details: HCT-15, 48 h
[36] = tested on: NCI-H23; test: Growth inhibition of human NCI-H23 cells at 0.1 uM after 48 hrs by SRB assay; values are per cent of control; details: NCI-H23, 48 h
[37] = tested on: MDA-MB-231; test: Growth inhibition of human MDA-MB-231 cells at 0.3 uM after 48 hrs by SRB assay; values are per cent of control; details: MDA-MB-231, 48 h

SMILES: CCCCCCCCCCCCCCS(=O)(=O)NCC(C)(C)C[N+](C)(C)CC
- GI50 [1]: 730 nM
- GI50 [2]: inactive
- Activity [3]: Active
- GI50 [4]: 510 nM
- GI50 [5]: 2520 nM
- GI50 [6]: 720 nM
- GI50 [7]: 460 nM
- growth, % of control at 10 µM [8]: -26%
- growth, % of control at 1 µM [9]: 33.8%
- growth, % of control at 10 µM [10]: 36.1%
- growth, % of control at 3 µM [11]: 91.6%
- growth, % of control at 0.1 µM [12]: 101%
- growth, % of control at 0.3 µM [13]: 97.7%
- growth, % of control at 0.1 µM [14]: 110%
- growth, % of control at 0.3 µM [15]: 107%
- growth, % of control at 0.3 µM [16]: 111%
- growth, % of control at 10 µM [17]: -4%
- growth, % of control at 0.3 µM [18]: 109%
- growth, % of control at 1 µM [19]: 49.9%
- growth, % of control at 10 µM [20]: 12.9%
- growth, % of control at 0.1 µM [21]: 91.2%
- growth, % of control at 3 µM [22]: 32.8%
- growth, % of control at 1 µM [23]: 19.6%
- growth, % of control at 3 µM [24]: -11.9%
- growth, % of control at 3 µM [25]: 60.6%
- growth, % of control at 1 µM [26]: 68.2%
- growth, % of control at 3 µM [27]: 3.9%
- growth, % of control at 0.1 µM [28]: 106%
- growth, % of control at 0.3 µM [29]: 99.3%
- growth, % of control at 1 µM [30]: 104%
- growth, % of control at 10 µM [31]: -15.7%
- growth, % of control at 10 µM [32]: 59.4%
- growth, % of control at 1 µM [33]: 52.9%
- growth, % of control at 3 µM [34]: 28.3%
- growth, % of control at 0.1 µM [35]: 112%
- growth, % of control at 0.1 µM [36]: 121%
- growth, % of control at 0.3 µM [37]: 89.3%

SMILES: CCCCCCCCCCCCCCS(=O)(=O)N(C)CC[N+](CC)(CC)CC
- GI50 [1]: 470 nM
- GI50 ([2]; HCT-15, 48 h): 3460 nM
- Activity [3]: Active
- GI50 [4]: 320 nM
- GI50 [5]: 1460 nM
- GI50 [6]: 870 nM
- GI50 [7]: 520 nM
- growth, % of control at 10 µM [8]: -11.5%
- growth, % of control at 1 µM [9]: 20.9%
- growth, % of control at 10 µM [10]: 21.2%
- growth, % of control at 3 µM [11]: 72.5%
- growth, % of control at 0.1 µM [12]: 96.4%
- growth, % of control at 0.3 µM [13]: 94.5%
- growth, % of control at 0.1 µM [14]: 92%
- growth, % of control at 0.3 µM [15]: 83.8%
- growth, % of control at 0.3 µM [16]: 96.6%
- growth, % of control at 10 µM [17]: -5.6%
- growth, % of control at 0.3 µM [18]: 90.1%
- growth, % of control at 1 µM [19]: 54.2%
- growth, % of control at 10 µM [20]: 17.2%
- growth, % of control at 0.1 µM [21]: 96.4%
- growth, % of control at 3 µM [22]: 34.1%
- growth, % of control at 1 µM [23]: 41.4%
- growth, % of control at 3 µM [24]: 0.9%
- growth, % of control at 3 µM [25]: 48.6%
- growth, % of control at 1 µM [26]: 68.7%
- growth, % of control at 3 µM [27]: 7.9%
- growth, % of control at 0.1 µM [28]: 103%
- growth, % of control at 0.3 µM [29]: 102%
- growth, % of control at 1 µM [30]: 87.1%
- growth, % of control at 10 µM [31]: -1.3%
- growth, % of control at 10 µM [32]: 36%
- growth, % of control at 1 µM [33]: 39.8%
- growth, % of control at 3 µM [34]: 15%
- growth, % of control at 0.1 µM [35]: 95.3%
- growth, % of control at 0.1 µM [36]: 97.3%
- growth, % of control at 0.3 µM [37]: 95.3%

Source: ChEMBL document CHEMBL2434921, “New synthetic aliphatic sulfonamido-quaternary ammonium salts as anticancer chemotherapeutic agents” (2013)
